Patent US12264173B2 (GILEAD SCIENCES, INC., priority 2020, dated 2025)
Where two headings read alike, the source gives them in different places.

Key:
Format in all cases: cell-based
HRV16 = HRV16 HeLa EC50 (cytopathic effect in H1-HeLa cells)
Description: H1-HeLa cells, cultured in complete DMEM medium containing 10% heat-inactivated FBS and 1% Penicillin/Streptomycin, were seeded in 96 well plates at 3000 cells/well one day prior to compound dosing and infection. The antiviral activity of each compound was measured in triplicate. Compounds were added directly to the cell cultures in serial 3-fold dilutions using the HP300 digital dispenser (Hewlett Packard, Palo Alto, CA) immediately prior to infection. The plates were transferred to BSL-2 containment and the appropriate dilution of virus stock, previously determined by titration and prepared in cell culture media, was added to test plates containing cells and serially diluted compounds. Each plate included 6 wells of infected untreated cells and 6 wells of uninfected cells that served as 0% and 100% virus inhibition control, respectively. Following the infection, test plates were incubated for 96 h in a tissue culture incubator set to 33° C./5% CO2. Following incubation, the H1-HeLa cells were removed from incubation and allowed to equilibrate to 25° C. Cell viability was determined by removing 100 μL of culture medium and adding 100 μL of Cell-Titer Glo viability reagent. The mixtures were incubated on a shaker for 10 minutes at 25° C., and the luminescence signal was quantified on an Envision luminescence plate reader.

DENV2 replicon = assay: DENV-2 Huh-7 Rep EC50 (replicon luminescence)
Description: In 384 well plates (Greiner, Cat #781091), compounds were acoustically transferred at 200 nl per well in a 8 compound (4 replicates) or 40 compound dose response format (3 replicates). For all plates tested, Balapiravir, GS-5734 and NITD008 were included as positive inhibition controls alongside 0% inhibition, DMSO-only negative control wells. Following compound addition, Huh-7 cells containing the DENV2 replicon construct were harvested following standard cell culture procedures and were adjusted to a concentration of 1.25E5 cells/mL in cell culture media composed of cDMEM without genticin. 40 μL of the cell stock was then added to each well for a final cell density of 5,000 cells/well. Cell and compound mixtures were incubated at 37° C./5% CO2 for 48 hours. Prior to harvesting cells, EnduRen Live Cell Substrate (Promega, Cat #E6481) was prepared by suspending 3.4 mg into 100 uL of DMSO to generate a 60 mM stock solution. The stock solution was then diluted 1:200 in pre-warmed cDMEM and 10 uL of this diluted solution was added to each well of the 384 well plates. Plates were then centrifuged at 500 rpm briefly and were placed on a plate shaker for 2 min. Following mixing, plates were incubated at […] for 1.5 hours prior to measuring luminescence on an Envision luminometer.

RSV strain A2 = assay: microbe, parasite or virus in culture; conditions: Table 3, HEp-2 cells, RSV A2, 4 days, read-out: RSV HEp-2 EC50
In short: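 Cytopathic-effect protection assay: HEp-2 cells (50,000/mL) infected with pre-titered RSV A2 onto 3-fold serial compound dilutions, incubated 4 days at 37° C. Cell viability read by CellTiter-Glo luminescence; percent inhibition derived against 0% and 100% virus-inhibition controls.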

RSV A2 = assay: RSV NHBE EC50 (RSV A2 antiviral assay in NHBE cells); conditions: Table 3, NHBE cells, RSV A2, 4 days, read-out: RSV NHBE EC50
In short: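 Primary bronchial epithelial cells attach overnight, receive 3-fold serial compound dilutions, and are infected with RSV A2 at 1×10^4.5 tissue culture infectious doses/mL. Protection from virus-induced cell death is scored by luminescent viability assay after 4 days.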

[1] = 96 h, Table 3; H1-HeLa cells, 96 h; read-out: HRV16 HeLa EC50
[2] = Dengue virus, DENV2, Huh-7, 48 h, read-out: DENV-2 REP Huh7 EC50
[3] = human respiratory syncytial virus, HEp-2, 96 h
[4] = human respiratory syncytial virus, NHBE, 96 h
[5] = Table 3; H1-HeLa cells, 96 h; read-out: HRV16 HeLa EC50
[6] = Table 3, Huh-7 DENV2 replicon cells, 48 hours, read-out: DENV-2 REP Huh7 EC50
[7] = Dengue virus, DENV2, Huh-7, 48 h, read-out: DENV-2 REP Huh7 EC50, Table 3, Huh-7 DENV2 replicon cells, 48 hours

## CO[C@H](C)C(=O)Nc1ncnn2c([C@@H]3O[C@](C#N)(CO[P@@](=O)(N[C@@H](C)C(=O)OC(C)C)Oc4ccccc4)[C@@H](OC(=O)[C@@H](C)OC)[C@H]3OC(=O)[C@@H](C)OC)ccc12 [Example 155, (2R,3S,4S,5S)-2-cyano-2-((((S)-(((S)-1-isopropoxy-1-oxopropan-2-yl)amino)(phenoxy)phosphoryl)oxy)methyl)-5-(4-((R)-2-methoxypropanamido)pyrrolo[2,1-f][1,2,4]triazin-7-yl)tetrahydrofuran-3,4-diyl (2R,2′R)-bis(2-methoxypropanoate)]
HRV16; [1]
  EC50: 2680 nM
DENV2 replicon; [2]
  EC50: 29200 nM
RSV strain A2; [3]
  EC50: 437 nM
RSV A2; [4]
  EC50: 294 nM

## CC(C)OC(=O)[C@H](C)N[P@](=O)(OC[C@@]1(C#N)O[C@@H](c2ccc3c(N)ncnn23)[C@H](OC(=O)CC(C)(C)O)[C@@H]1OC(=O)CC(C)(C)O)Oc1ccccc1 [Example 152, (2R,3S,4S,5S)-5-(4-aminopyrrolo[2,1-f][1,2,4]triazin-7-yl)-2-cyano-2-((((S)-(((S)-1-isopropoxy-1-oxopropan-2-yl)amino)(phenoxy)phosphoryl)oxy)methyl) tetrahydrofuran-3,4-diyl bis(3-hydroxy-3-methylbutanoate)]
HRV16; [1]
  EC50: > 50000 nM
DENV2 replicon; [2]
  EC50: > 50000 nM
RSV strain A2; [3]
  EC50: 2930 nM
RSV A2; [4]
  EC50: > 5000 nM

## CC(=O)O[C@H]1[C@H](c2ccc3c(N)ncnn23)O[C@](C#N)(CO[P@@](=O)(N[C@@H](C)C(=O)OC(C)C)Oc2ccccc2)[C@H]1OC(C)=O [Example 89, (2R,3S,4S,5S)-5-(4-Aminopyrrolo[2,1-f][1,2,4]triazin-7-yl)-2-cyano-2-((((S)-(((S)-1-isopropoxy-1-oxopropan-2-yl)amino)(phenoxy)phosphoryl)oxy)methyl) tetrahydrofuran-3,4-diyl diacetate]
HRV16; [1]
  EC50: 785 nM
DENV2 replicon; [2]
  EC50: 49700 nM
RSV strain A2; [3]
  EC50: 195 nM
RSV A2; [4]
  EC50: 126 nM

## CC(C)C(=O)O[C@H]1[C@H](c2ccc3c(N)ncnn23)O[C@](C#N)(COP(=O)(N[C@@H](C)C(=O)OC2CCC2)Oc2ccccc2)[C@H]1OC(=O)C(C)C (stereo partly drawn) [Example 197, (2R,3S,4S,5S)-5-(4-aminopyrrolo[2,1-f][1,2,4]triazin-7-yl)-2-cyano-2-((((((S)-1-cyclobutoxy-1-oxopropan-2-yl)amino)(phenoxy)phosphoryl)oxy)methyl) tetrahydrofuran-3,4-diyl bis(2-methylpropanoate)]
HRV16; [5]
  EC50: 94 nM
DENV2 replicon; [6]
  EC50: 4460 nM
RSV strain A2
  EC50: 28 nM
RSV A2
  EC50: 33 nM

## CCC(=O)O[C@H]1[C@H](c2ccc3c(N)ncnn23)O[C@](C#N)(CO[P@@](=O)(N[C@@H](C)C(=O)OCC(CC)CC)Oc2ccccc2)[C@H]1OC(=O)CC [Example 180, (2R,3S,4S,5S)-5-(4-aminopyrrolo[2,1-f][1,2,4]triazin-7-yl)-2-cyano-2-((((S)-(((S)-1-(2-ethylbutoxy)-1-oxopropan-2-yl)amino)(phenoxy)phosphoryl)oxy)methyl) tetrahydrofuran-3,4-diyl dipropionate]
HRV16; [1]
  EC50: 178 nM
DENV2 replicon; [2]
  EC50: 8310 nM
RSV strain A2; [3]
  EC50: 62 nM
RSV A2; [4]
  EC50: 31 nM

## CCC(=O)O[C@H]1[C@H](c2ccc3c(N)ncnn23)O[C@](C#N)(COP(=O)(N[C@@H](C)C(=O)OC2COC2)Oc2ccccc2)[C@H]1OC(=O)CC (single isomer, unassigned) [Example 176]
HRV16; [5]
  EC50: 142 nM
DENV2 replicon; [6]
  EC50: 9440 nM
RSV strain A2
  EC50: 182 nM
RSV A2
  EC50: 16 nM

## CC(C)CCC(=O)O[C@H]1[C@H](c2ccc3c(N)ncnn23)O[C@](C#N)(CO[P@@](=O)(N[C@@H](C)C(=O)OC2CCCCC2)Oc2ccccc2)[C@H]1OC(=O)CCC(C)C [Example 78, (2R,3S,4S,5S)-5-(4-aminopyrrolo[2,1-f][1,2,4]triazin-7-yl)-2-cyano-2-((((S)-(((S)-1-(cyclohexyloxy)-1-oxopropan-2-yl)amino)(phenoxy)phosphoryl)oxy)methyl) tetrahydrofuran-3,4-diyl bis(4-methylpentanoate)]
HRV16; [1]
  EC50: 6520 nM
DENV2 replicon; [2]
  EC50: 31800 nM
RSV strain A2; [3]
  EC50: 1350 nM
RSV A2; [4]
  EC50: 710 nM

## CC(=O)O[C@H]1[C@H](c2ccc3c(N)ncnn23)O[C@](C#N)(CO[P@](=O)(N[C@@H](C)C(=O)OCC2CCOCC2)Oc2ccccc2)[C@H]1OC(C)=O [Example 112]
HRV16; [5]
  EC50: 2900 nM
DENV2 replicon; [6]
  EC50: 36500 nM
RSV strain A2
  EC50: 284 nM
RSV A2
  EC50: 40 nM

## CCC(CC)COC(=O)[C@H](C)NP(=O)(N[C@@H](C)C(=O)OC1CCCCC1)OC[C@@]1(C#N)O[C@@H](c2ccc3c(N)ncnn23)[C@H](OC(C)=O)[C@@H]1OC(C)=O (stereo partly drawn) [Example 113, (2R,3S,4S,5S)-5-(4-Aminopyrrolo[2,1-f][1,2,4]triazin-7-yl)-2-cyano-2-((((((S)-1-(cyclohexyloxy)-1-oxopropan-2-yl)amino)(((S)-1-(2-ethylbutoxy)-1-oxopropan-2-yl)amino)phosphoryl)oxy)methyl)tetrahydrofuran-3,4-diyl diacetate]
HRV16; 96 h, read-out: HRV16 HeLa EC50, Table 3; H1-HeLa cells, 96 h
  EC50: 4680 nM
DENV2 replicon; [7]
  EC50: 31900 nM
RSV strain A2; [3]
  EC50: 1940 nM

## CC(=O)O[C@H]1[C@H](c2ccc3c(N)ncnn23)O[C@](C#N)(CO[P@](=O)(N[C@@H](C)C(=O)OCC2CCN(CC(F)(F)F)CC2)Oc2ccccc2)[C@H]1OC(C)=O [Example 120]
HRV16; [5]
  EC50: 1140 nM
DENV2 replicon; [6]
  EC50: 35200 nM
RSV strain A2
  EC50: 163 nM

## CC(C)C(=O)O[C@H]1[C@H](c2ccc3c(N)ncnn23)O[C@](C#N)(COP(=O)(N[C@@H](C)C(=O)OCC(C)(C)O)Oc2ccccc2)[C@H]1OC(=O)C(C)C (single isomer, unassigned) [Example 258]
DENV2 replicon; [6]
  EC50: 18300 nM
RSV strain A2
  EC50: 91 nM
RSV A2
  EC50: 34 nM

## CC(=O)O[C@H]1[C@H](c2ccc3c(N)ncnn23)O[C@](C#N)(CO[P@@](=O)(N[C@@H](C)C(=O)OCC2CCOCC2)Oc2ccccc2)[C@H]1OC(C)=O [Example 111]
DENV2 replicon; [6]
  EC50: > 100000 nM
RSV strain A2
  EC50: 873 nM
RSV A2
  EC50: 44 nM

## CC(C)OC(=O)[C@H](C)NP(=O)(OCCS(C)(=O)=O)OC[C@@]1(C#N)O[C@@H](c2ccc3c(N)ncnn23)[C@H](OC(=O)C(C)C)[C@@H]1OC(=O)C(C)C (stereo partly drawn) [Example 210, (2R,3S,4S,5S)-5-(4-aminopyrrolo[2,1-f][1,2,4]triazin-7-yl)-2-cyano-2-((((((S)-1-isopropoxy-1-oxopropan-2-yl)amino)(2-(methylsulfonyl)ethoxy)phosphoryl)oxy)methyl)tetrahydrofuran-3,4-diyl bis(2-methylpropanoate)]
DENV2 replicon; [7]
  EC50: > 35400 nM
RSV strain A2; [3]
  EC50: 36300 nM
RSV A2; [4]
  EC50: 3420 nM

## COC(=O)[C@H](C)N[P@](=O)(OC[C@@]1(C#N)O[C@@H](c2ccc3c(/N=C/N(C)C)ncnn23)[C@H](OC(=O)C(C)C)[C@@H]1OC(=O)C(C)C)Oc1ccccc1 [Example 260, (2R,3S,4S,5S)-2-Cyano-5-(4-(((E)-(dimethylamino)methylene)amino)pyrrolo[2,1-f][1,2,4]triazin-7-yl)-2-((((S)-(((S)-1-methoxy-1-oxopropan-2-yl)amino)(phenoxy)phosphoryl)oxy)methyl) tetrahydrofuran-3,4-diyl bis(2-methylpropanoate)]
DENV2 replicon; [2]
  EC50: 2800 nM
RSV strain A2; [3]
  EC50: 41 nM
RSV A2; [4]
  EC50: 12 nM
